Source: US6136831A, “Pyrazole derivatives and COX inhibitors containing them” (Grelan Pharmaceutical Co., Ltd., priority 1997, dated 2000)

Tests used:
[1] = target: T1, COX-1 (Ovis aries, UniProt P05979); assay: Inhibitory Activity on COX-1 (Assay Example 1); format: biochemical; conditions: Table 1; read-out: COX Inhibiting Activity IC50, COX-1
T1 construct: purchased Cayman Chemical Co
T1 sequence (P05979 25-600): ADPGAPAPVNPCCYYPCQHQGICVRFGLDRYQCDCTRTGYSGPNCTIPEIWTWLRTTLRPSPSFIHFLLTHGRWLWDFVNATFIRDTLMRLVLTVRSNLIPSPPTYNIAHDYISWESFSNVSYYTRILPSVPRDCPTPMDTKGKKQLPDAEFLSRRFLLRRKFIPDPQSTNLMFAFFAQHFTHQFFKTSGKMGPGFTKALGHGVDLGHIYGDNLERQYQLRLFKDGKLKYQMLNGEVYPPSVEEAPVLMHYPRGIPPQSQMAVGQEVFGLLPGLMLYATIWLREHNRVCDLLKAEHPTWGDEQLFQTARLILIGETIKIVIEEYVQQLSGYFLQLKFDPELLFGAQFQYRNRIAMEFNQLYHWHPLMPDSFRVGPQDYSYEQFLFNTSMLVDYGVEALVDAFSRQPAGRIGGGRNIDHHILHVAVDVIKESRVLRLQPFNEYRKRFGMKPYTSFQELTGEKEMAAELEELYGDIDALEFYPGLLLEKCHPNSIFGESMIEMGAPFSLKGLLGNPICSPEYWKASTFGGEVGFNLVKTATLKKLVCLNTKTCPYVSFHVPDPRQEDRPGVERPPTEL

[2] = target: T2, COX-2 (Ovis aries, UniProt P79208); assay: Inhibitory Activity on COX-2 (Assay Example 1); format: biochemical; conditions: Table 1; for IC50: read-out: COX Inhibiting Activity IC50, COX-2
T2 construct: purchased Cayman Chemical Co
T2 sequence (P79208 17-603): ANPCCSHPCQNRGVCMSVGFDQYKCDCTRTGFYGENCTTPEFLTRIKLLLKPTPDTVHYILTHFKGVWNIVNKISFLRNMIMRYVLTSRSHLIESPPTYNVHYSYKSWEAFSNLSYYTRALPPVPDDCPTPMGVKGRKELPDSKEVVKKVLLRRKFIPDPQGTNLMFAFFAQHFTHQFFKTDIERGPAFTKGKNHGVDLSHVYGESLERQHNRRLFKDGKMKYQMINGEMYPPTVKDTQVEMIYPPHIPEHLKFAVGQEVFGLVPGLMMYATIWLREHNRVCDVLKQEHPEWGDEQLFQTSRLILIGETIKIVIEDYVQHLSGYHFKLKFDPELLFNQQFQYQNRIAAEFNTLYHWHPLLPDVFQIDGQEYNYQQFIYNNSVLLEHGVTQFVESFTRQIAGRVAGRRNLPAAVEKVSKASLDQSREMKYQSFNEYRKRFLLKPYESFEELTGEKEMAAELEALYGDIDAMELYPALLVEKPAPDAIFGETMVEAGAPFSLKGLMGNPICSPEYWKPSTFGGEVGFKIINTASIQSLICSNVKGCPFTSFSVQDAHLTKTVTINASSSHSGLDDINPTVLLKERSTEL

[3] = tested on: rat adjuvant-induced arthritis; assay: Inhibitory Action on Adjuvant Arthritis (1) (Assay Example 2); format: in vivo, male Fisher rats; conditions: oral 5 mg/kg; for % Inhibition against Change in Relative Weight, Spleen / % Inhibition against Change in Relative Weight, Thymus: 7 times, relative weight per 100 g body weight, day 21; for % Inhibition against Reduction of Gain in Body Weight / Edema Inhibition (%) Left Hind Paw (Non-inflamed Paw) / Edema Inhibition (%) Right Hind Paw (Inflamed Paw) / Inflammation Score Inhibition (%): days 0, 3, 7, 10, 14, 17, 20; for % Inhibition against Reduction of Gain in Body Weight / Edema Inhibition (%) Left Hind Paw (Non-inflamed Paw) / Edema Inhibition (%) Right Hind Paw (Inflamed Paw): measured day 21; for Inflammation Score Inhibition (%): scored day 21
Procedure: Dry Mycobacterium butyricum killed organisms (Difco) were suspended in liquid paraffin to make the concentration 1% and the resulting suspension used as an adjuvant. The adjuvant (50 μl) was subplantarly injected to the right hind paw of male Fisher rats (5 to 6 animals per group) to raise arthritis. Each test compound was suspended in a 0.5% aqueous sodium carboxymethylcellulose (CMC-Na) solution and orally administered to the rats at a dose of 5 mg/kg on days 0, 3, 7, 10, 14, 17 and 20 (7 times in total) after the arthritis induction. On the 21st disease day the rats were measured for their body weight and the edema of their right and left hind paws. Simultaneously, systemic inflammatory states were scored. In addition, each of their spleen and thymus was taken out by excision to measure their wet weight and their relative weight per 100 g body weight was calculated.

[4] = tested on: acetic acid writhing in male ddY mice; assay: Analgesic Action in Acetic Acid Writhing (Assay Example 3); format: in vivo
Procedure: A 0.7% acetic acid solution was intraperitoneally administered to male ddY mice at a dose of 10 ml/kg body weight. The frequency of writhing manifested was counted as an index of pains for a period of 10 minutes starting from the 10th minute after the administration. Ten or thirty minutes prior to the acetic acid administration, each test compound was orally given.

[5] = tested on: oxazolone-induced dermal delayed type hypersensitivity (IV-type allergy); assay: Inhibitory Action on Oxazolone-Induced Dermal Delayed Type Hypersensitivity (Assay Example 8); format: in vivo, mice; conditions: for edema inhibition / increase in edematized auricle thickness: 4 days, 24 hours after challenge; for increase in edematized auricle thickness: control (0.12±0.03) mm
Procedure: Sensitization was conducted by topically applying 150 μl of 1% oxazolone solution (ethanol:acetone=3:1) to mice (5 to 6 animals per group), the abdominal and pectral regions of which were shaved in advance. Four days after the sensitization, 10 μl of 0.8% oxazolone solution (in olive oil) was topically applied to the […] left auricle to raise the response. Twenty-four hours later the auricular thickness was measured using a dial-gauge (Mitsutoyo Co.). Values obtained by subtracting auricular thickness data prior to the challenge were taken as indexes of the response. […] One hour after the final administration, the challenge was conducted.

[6] = tested on: Arthus reaction (III-type allergy); assay: Inhibitory Action on Arthus Reaction (Assay Example 7); conditions: for increase in edematized left hind paw volume / edema inhibition: one hour prior to ovalbumin; for increase in edematized left hind paw volume: 2 hours, control (0.74±0.06) ml; for edema inhibition: significant, not more than 1% error level
Procedure: Rat anti-ovalbumin serum was prepared by the method given below. One mg of ovalbumin was dissolved in 1 ml of physiological saline and divided to two aliquots. The ovalbumin solution was intramuscularly administered to the femoral portion of male SD rats. Simultaneously, 0.5 ml of 0.05% Mycobacterium butyricum suspension as a Freund's complete adjuvant was intraperitoneally administered to the rats. Three days later, the same treatments were repeated. On the 12th day after the initial sensitization,antisera were collected.
Two hours later, the left hind paw volume was measured using a plethysmometer and the increases in paw volume were determined by comparing with those prior to the Arthus reaction induction. […] Each compound was suspended in a 0.5% aqueous CMC-Na solution and orally administered one hour prior to the ovalbumin administration. Control groups received only a 0.5% aqueous CMC-Na solution. The test of significance was conducted by Dunnett's multiple range test.

[7] = tested on: adjuvant arthritis in rats; assay: Inhibitory Action on Adjuvant Arthritis (2) (Assay Example 6); format: in vivo, male F344/Du (Fisher) rats; conditions: oral 1 mg/5 ml/kg daily, 17 days
Procedure: A 1% dry Mycobacterium tuberculosis H37 RA killed organism suspension in liquid paraffin was employed as an adjuvant. The adjuvant suspension (50 μl) was subplantarly administered to the right hind paw of male F344/Du (Fisher) rats (5 to 6 animals per group) to raise arthritis. […] The next day after the final administration, the rats were measured for their body weight and the edema of their right and left hind paws. Simultaneously, systemic inflammatory states were scored. In addition, each of their spleen and thymus was taken out by excision to measure their wet weight and their relative weight per 100 g body weight was determined.

Structure (SMILES)	IC50 [1] [µM]	COX-1/COX-2 (ratio of IC50 values) [2]	IC50 [2] [µM]	% Inhibition against Change in Relative Weight, Spleen [3] [%]	% Inhibition against Change in Relative Weight, Thymus [3] [%]	% Inhibition against Reduction of Gain in Body Weight [3] [%]	Edema Inhibition (%) Left Hind Paw (Non-inflamed Paw) [3] [%]	Edema Inhibition (%) Right Hind Paw (Inflamed Paw) [3] [%]	Inflammation Score Inhibition (%) [3] [%]	also measured
CS(=O)(=O)c1ccc(-n2nc(C(F)(F)F)cc2-c2nc3ccc(F)cc3s2)cc1 [Example 2, 6-Fluoro-2-[1-(4-methylsulfonylphenyl)-3-trifluoromethyl-1H-pyrazol-5-yl]benzothiazole]	> 100	> 263	0.38	2.5	56.7	75.9	91	94	97	% Inhibition of Writhing Response ([4]; 10 mg/kg oral, Administration Point 1: 10 minutes prior to acetic acid): 49%; % Inhibition of Writhing Response ([4]; 10 mg/kg oral, Administration Point 2: 30 minutes prior to acetic acid): 57%
CS(=O)(=O)c1ccc(-n2nc(C(F)(F)F)cc2-c2nc3c(F)cccc3s2)cc1 [Example 6, 4-Fluoro-2-[1-(4-methylsulfonylphenyl)-3-trifluoromethyl-1H-pyrazol-5-yl]benzothiazole]	> 100	> 23.3	4.3	42.6	130.3	104.6	105	84	97	edema inhibition ([5]; 30 mg/kg oral daily): 48%; increase in edematized auricle thickness ([5]; 30 mg/kg oral daily): 0.06±0.01 mm; action on oxazolone-induced delayed type hypersensitivity, in words ([5]; index test for immunoregulating activity, IV-type allergy): controlling actions; increase in edematized left hind paw volume ([6]; 50 mg/kg oral): 0.54 ± 0.04 mL; edema inhibition ([6]; 50 mg/kg oral): 27%; action on Arthus reaction, in words ([6]; index test for immunoregulating activity, III-type allergy): controlling actions
NS(=O)(=O)c1ccc(-n2nc(C(F)(F)F)cc2-c2nc3ccc(F)cc3s2)cc1 [Example 13, 4-[5-(6-Fluorobenzothiazol-2-yl)-3-trifluoromethyl-1H-pyrazol-1-yl]benzenesulfonamide]	47	142	0.33	-10.5	71.3	48.6	76	71	78	
COc1ccc2c(c1)c(CC(=O)O)c(C)n2C(=O)c1ccc(Cl)cc1 [Indomethacin, reference compound]						19.8	75	43	51	% Inhibition of Writhing Response ([4]; po, 3 mg/kg): 28%
CS(=O)(=O)c1ccc(-n2nc(C(F)(F)F)cc2-c2ccc(F)cc2)cc1 [SC-58125, 5-(4-fluorophenyl)-1-(4-methylsulfonylphenyl)-3-trifluoromethyl-1H-pyrazole, reference compound]						96.9	95	76	96	% Inhibition of Writhing Response ([4]; 30 mg/kg oral, Administration Point 1: 10 minutes prior to acetic acid): 22%
Cc1ccc(-c2cc(C(F)(F)F)nn2-c2ccc(S(N)(=O)=O)cc2)cc1 [YM-177, 4-[5-(4-methylphenyl)-3-trifluoromethyl-1H-pyrazol-1-yl]benzenesulfonamide, reference compound]						25.5	65	37	44	% Inhibition of Writhing Response ([4]; po, 30 mg/kg): 17%; % Inhibition against Reduction of Gain in Body Weight ([7]; measured next day): 21%; Edema Inhibition (%) Left Hind Paw (Non-inflamed Paw) ([7]; measured next day): 60%; Edema Inhibition (%) Right Hind Paw (Inflamed Paw) ([7]; measured next day): 41%; Inflammation Score Inhibition (%) ([7]; scored next day): 49%
C[C@]12C=CC(=O)C=C1CC[C@@H]1[C@@H]2[C@@H](O)C[C@@]2(C)[C@H]1CC[C@]2(O)C(=O)CO [prednisolone, reference compound]										edema inhibition ([5]; 10 mg/kg oral daily): 70%; increase in edematized auricle thickness ([5]; 10 mg/kg oral daily): 0.04±0.01 mm; increase in edematized left hind paw volume ([6]; 10 mg/kg oral): 0.51 ± 0.02 mL; edema inhibition ([6]; 10 mg/kg oral): 31%
